Measured values published in patent US20260232763A1 (Kadmon Corporation, LLC, priority 2023, published 2026).
Values joined by “and” are separate entries in the source; they are usually repeats but may differ in a detail not shown here. Equal entries are not always repeated. Where two headings read alike, the source gives them in different places.

Tests used:
solubility = type: physicochemical; conditions: in vitro assessments
CYP3A4 = CYP3A4 (Homo sapiens, UniProt P08684); assay: in vitro metabolism; type: in vitro ADME; conditions: in vitro assessments
Sequence of CYP3A4 (P08684 whole entry): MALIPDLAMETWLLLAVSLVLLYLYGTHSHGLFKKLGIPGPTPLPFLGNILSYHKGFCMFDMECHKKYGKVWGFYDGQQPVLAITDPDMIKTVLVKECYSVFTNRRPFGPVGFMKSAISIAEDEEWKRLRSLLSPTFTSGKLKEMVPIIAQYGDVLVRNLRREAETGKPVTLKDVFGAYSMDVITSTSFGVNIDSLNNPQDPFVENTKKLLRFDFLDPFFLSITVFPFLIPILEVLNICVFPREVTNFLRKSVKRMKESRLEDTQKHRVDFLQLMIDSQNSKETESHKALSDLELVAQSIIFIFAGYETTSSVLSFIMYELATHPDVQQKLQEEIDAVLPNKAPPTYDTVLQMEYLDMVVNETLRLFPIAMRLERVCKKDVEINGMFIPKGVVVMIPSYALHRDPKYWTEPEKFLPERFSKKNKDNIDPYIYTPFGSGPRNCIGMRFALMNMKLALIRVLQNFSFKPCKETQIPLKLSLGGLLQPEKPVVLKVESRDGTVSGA

clinical = conditions: male, human, in vivo
Procedure: On Day 10, the victim and perpetrator IMPs were administered simultaneously.
On the evening before each dose, participants were provided with a light snack and were required to fast from all food and drink (except water) for a minimum of 10 hours until the following morning. All study interventions were administered in the fed state, following completion of a standard breakfast (with dosing planned to occur 30 minutes after the start of the breakfast).
The PK parameters underwent a natural logarithmic transformation and were analyzed using a mixed effect modelling technique. Adjusted geometric mean ratios and 90% confidence intervals (CIs) of the ratios were obtained for each comparison. The ratio was defined as test/reference. In addition, the intraparticipant variability were also presented. […] No formal interim analyses were performed for this study.

pregnant rats = conditions: cited from earlier work
[1] = dosage range of 200 and 400 mg; cited from earlier work
[2] = healthy subjects, cited from earlier work
human serum albumin = human serum albumin (Homo sapiens, UniProt P02768); conditions: in vitro; cited from earlier work
Sequence of human serum albumin (P02768 25-609): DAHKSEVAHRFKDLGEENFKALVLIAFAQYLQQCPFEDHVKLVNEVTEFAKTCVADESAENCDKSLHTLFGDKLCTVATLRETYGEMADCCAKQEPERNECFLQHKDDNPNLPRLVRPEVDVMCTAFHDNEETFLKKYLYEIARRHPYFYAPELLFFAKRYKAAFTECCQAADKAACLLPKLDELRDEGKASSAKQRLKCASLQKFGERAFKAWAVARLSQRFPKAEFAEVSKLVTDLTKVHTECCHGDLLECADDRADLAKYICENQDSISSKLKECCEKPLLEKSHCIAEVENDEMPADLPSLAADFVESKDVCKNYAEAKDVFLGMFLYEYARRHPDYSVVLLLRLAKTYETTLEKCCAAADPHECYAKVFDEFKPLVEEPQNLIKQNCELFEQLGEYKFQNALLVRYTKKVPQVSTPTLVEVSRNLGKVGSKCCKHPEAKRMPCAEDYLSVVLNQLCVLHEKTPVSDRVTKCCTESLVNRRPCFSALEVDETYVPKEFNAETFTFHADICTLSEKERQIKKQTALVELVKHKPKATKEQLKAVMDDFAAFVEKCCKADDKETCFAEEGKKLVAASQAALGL

[3] = system: human […]1-acid glycoprotein; conditions: in vitro; cited from earlier work
[4] = healthy subjects, cited from earlier work; remark: listed apart in the source
BCRP = target: T1, BCRP (Homo sapiens, UniProt Q9UNQ0); conditions: in vitro, at clinically relevant concentrations; cited from earlier work
T1 sequence (Q9UNQ0 1-655): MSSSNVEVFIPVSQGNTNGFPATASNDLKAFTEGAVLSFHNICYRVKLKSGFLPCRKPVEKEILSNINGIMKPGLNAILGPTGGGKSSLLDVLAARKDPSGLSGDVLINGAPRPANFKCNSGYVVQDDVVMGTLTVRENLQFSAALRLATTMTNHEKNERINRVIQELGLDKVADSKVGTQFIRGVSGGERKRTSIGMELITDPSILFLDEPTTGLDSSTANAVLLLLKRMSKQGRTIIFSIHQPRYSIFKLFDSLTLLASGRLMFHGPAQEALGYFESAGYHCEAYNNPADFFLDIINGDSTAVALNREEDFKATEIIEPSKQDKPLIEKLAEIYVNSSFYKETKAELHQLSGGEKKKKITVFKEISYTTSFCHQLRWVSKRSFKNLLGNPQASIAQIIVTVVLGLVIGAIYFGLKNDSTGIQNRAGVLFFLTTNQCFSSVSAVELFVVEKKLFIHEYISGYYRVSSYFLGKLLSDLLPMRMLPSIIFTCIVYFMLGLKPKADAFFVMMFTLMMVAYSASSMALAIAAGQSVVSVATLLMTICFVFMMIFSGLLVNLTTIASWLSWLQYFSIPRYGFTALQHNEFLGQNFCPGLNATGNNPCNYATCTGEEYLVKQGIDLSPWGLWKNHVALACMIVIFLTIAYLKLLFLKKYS

OATP1B1 = target: T2, OATP1B1 (Homo sapiens, UniProt Q9Y6L6); conditions: in vitro, at clinically relevant concentrations; cited from earlier work
T2 sequence (Q9Y6L6 1-691): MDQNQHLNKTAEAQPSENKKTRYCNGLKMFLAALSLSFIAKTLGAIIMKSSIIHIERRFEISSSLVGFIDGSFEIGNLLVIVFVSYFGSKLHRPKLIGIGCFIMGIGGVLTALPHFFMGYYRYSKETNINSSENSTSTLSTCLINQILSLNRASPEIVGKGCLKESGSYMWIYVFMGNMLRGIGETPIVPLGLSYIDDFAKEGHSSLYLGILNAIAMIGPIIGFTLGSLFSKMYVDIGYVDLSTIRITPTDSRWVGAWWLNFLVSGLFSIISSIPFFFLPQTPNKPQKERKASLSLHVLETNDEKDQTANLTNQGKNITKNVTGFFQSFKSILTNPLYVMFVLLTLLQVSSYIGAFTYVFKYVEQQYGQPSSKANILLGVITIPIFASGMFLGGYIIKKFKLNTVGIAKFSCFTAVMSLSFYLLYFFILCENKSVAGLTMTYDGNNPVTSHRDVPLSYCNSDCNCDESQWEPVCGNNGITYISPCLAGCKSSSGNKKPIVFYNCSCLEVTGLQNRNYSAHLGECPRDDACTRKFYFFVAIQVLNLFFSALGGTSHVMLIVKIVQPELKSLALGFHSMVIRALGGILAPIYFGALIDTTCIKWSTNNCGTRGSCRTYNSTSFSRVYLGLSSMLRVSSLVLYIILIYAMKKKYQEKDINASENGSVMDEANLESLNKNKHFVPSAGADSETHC

CYP2D6 = CYP2D6 (Homo sapiens, UniProt P10635); conditions: in vitro; cited from earlier work
Sequence of CYP2D6 (P10635 whole entry): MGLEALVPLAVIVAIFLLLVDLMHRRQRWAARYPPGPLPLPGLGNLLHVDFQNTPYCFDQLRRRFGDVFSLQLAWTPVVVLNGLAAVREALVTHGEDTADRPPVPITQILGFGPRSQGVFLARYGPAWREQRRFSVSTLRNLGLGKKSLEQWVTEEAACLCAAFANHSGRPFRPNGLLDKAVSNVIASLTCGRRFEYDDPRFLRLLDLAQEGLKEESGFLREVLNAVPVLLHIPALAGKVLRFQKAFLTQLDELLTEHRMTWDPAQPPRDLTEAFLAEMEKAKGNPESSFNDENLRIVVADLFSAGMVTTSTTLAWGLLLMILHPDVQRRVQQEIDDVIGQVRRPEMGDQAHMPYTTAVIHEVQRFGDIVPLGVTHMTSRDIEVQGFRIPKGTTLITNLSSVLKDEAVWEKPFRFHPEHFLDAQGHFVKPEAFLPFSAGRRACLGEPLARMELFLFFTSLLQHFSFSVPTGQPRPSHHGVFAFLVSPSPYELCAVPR

[5] = system: human peripheral blood lymphocytes (HPBL); conditions: chromosome aberration; cited from earlier work
rats = conditions: oral; cited from earlier work
[6] = single oral dose of radiolabeled belumosudil
[7] = coadministration of rabeprazole

## CC(C)NC(=O)COc1cccc(-c2nc(Nc3ccc4[nH]ncc4c3)c3ccccc3n2)c1 [belumosudil, 2-{3-[4-(1H-indazol-5-ylamino)-2-quinazolinyl]phenoxy}-N-(propan-2-yl) acetamide]
solubility
  solubility: pH dependent
CYP3A4
  metabolism: primarily dependent on cytochrome P450 CYP3A4 activity
clinical
  Tmax: 1.5 to 3 h
  increase of exposures (Cmax and AUC) following multiple dosing: 1.30-1.49 fold
clinical; 200 mg
  AUC(0-last), geometric mean: 9200 ng·h/mL
  AUC(0-tau), geometric mean: 9330 ng·h/mL
Pregnant rats; pregnant rats, period of organogenesis
  maternal exposures (AUC) with adverse developmental outcomes, times the human exposure (AUC) at the recommended dose: ≥ 3 times
Pregnant rats; rats, oral, pilot study
  dose with fetal malformations: ≥ 50 mg/kg/day
  dose with maternal toxicity (reduced body weight gain): 150 mg/kg/day and 300 mg/kg/day
[1]
  Cmax and AUC increase with dose: approximately proportional
[2]; single dose
  AUC increase with high-fat and high-calorie meal compared to fasted state: 2 times
  Cmax increase with high-fat and high-calorie meal compared to fasted state: 2.2 times
[2]; [6]
  radioactivity recovered in feces: 85%
  radioactivity recovered in feces as unchanged: 30%
  radioactivity recovered in urine: less than 5%
Human serum albumin
  binding to human serum albumin: 99.9%
[3]
  binding to human […]1-acid glycoprotein: 98.6%
[4]; coadministered with itraconazole
  effect on belumosudil exposure: no clinically meaningful effect
[4]; coadministration of omeprazole
  decrease of AUC: 47%
  decrease of Cmax: 68%
[4]; [7]
  decrease of AUC: 80%
  decrease of Cmax: 87%
[4]; coadministration of rifampin
  decrease of AUC: 72%
  decrease of Cmax: 59%
BCRP
  BCRP inhibition: inhibits
OATP1B1
  OATP1B1 inhibition: inhibits
CYP2D6
  CYP2D6 inhibition: inhibitor
[5]
  genotoxicity: not genotoxic
rats
  dose with abnormal sperm findings and testes/epididymis organ changes in male rats: 275 mg/kg/day
  dose with adverse findings in female rats (increased pre- or post-implantation loss, decreased number of viable embryos): 275 mg/kg/day
  dose with reduced fertility in treated males or females: 275 mg/kg/day
